System: Brahman steers (Bos indicus)
Test: Rumen metabolites in rumen fluid of fistulated Brahman steers, quantified by NMR
Assay type: in vivo
Conditions: for Dimethylsulfone in rumen fluid / Trimethylamine in rumen fluid: rumen fluid 3 h post feeding
Excerpt: Eight fistulated Brahman steers (Bos indicus) were randomly allocated to two groups (4 animals per group) and received a forage ad libitum diet (Rhode grass hay (Chloris […]), chemical composition: DM, 917 g/kg fresh matter; in g/kg of DM: OM, 806; CP, 169; NDF, 661; ADF, 359; ADL, 46; ash, 116 and GE 17.38 MJ/kg). […] Animals were adapted to the diet over a 21 d period. After that initial period, experimental animals were placed into individual pens in an animal house for the measurement of intakes (10 d) and were treated with cyclodextrin (2 g/100 kg LW) and molasses (60 mL/d). On the last 2 days animals were placed into open-circuit respiration chambers for collection of rumen samples. […] PDMN was provided to the animals mixed with molasses (60 mL/day, molasses were previously diluted in water: 1:4 water:molasses) and mixed with the hay at three different times: 0 h, 3 h and 5 h after the feed was offered. […] On days 20 and 21 of treatment both groups were placed in open-circuit respiration chambers for rumen fluid collection. Rumen fluid samples (approx. 60 mL per animal) were collected using a probe with 2 layers of cheesecloth through the cannula of the animal at 3 h post feeding, during confinement in respiration chambers to determine rumen metabolites.

[1] = 21 days treatment compared with control period

For `ClC(Cl)Cl` [Chloroform, chloroform, reference compound], the “Dimethylsulfone in rumen fluid” value (1.6 g chloroform-CD/100 kg LW for 21 days, control period 21) was 80 μmol/L rumen fluid, the “Trimethylamine in rumen fluid” value (1.6 g chloroform-CD/100 kg LW for 21 days, control period 564) was 828 μmol/L rumen fluid and the “Effect on the methyl donor dimethylsulfone and triethylamine in rumen fluid (in words)” value [1] was “statistically significant increase”.
With `O=[N+]([O-])OCCCO` [PDMN, 1,3-propanediol mononitrate] the “Dimethylsulfone in rumen fluid” value (2.5 g PDMN/animal/day (10% on silicon dioxide) for 21 days, control period 20) was 113 μmol/L rumen fluid, the “Trimethylamine in rumen fluid” value (2.5 g PDMN/animal/day (10% on silicon dioxide) for 21 days, control period 334) was 1242 μmol/L rumen fluid and the “Effect on dimethylsulfone and trimethylamine in rumen fluid (in words)” value [1] was “statistically significant increase”. The “Effect on dimethylsulfone and trimethylamine in rumen fluid (in words)” value (21 days treatment compared with control period, listed as propanediolediol mononitrate) was “particularly effective”.

Reference: US20240000721A1, “COMPOSITIONS FOR REDUCTION OF OXIDATIVE STRESS, IMPROVEMENT TO THE IMMUNE SYSTEM, PROMOTION OF HEALTHY CARTILAGE AND/OR ALLEVIATION OF PAIN ACCOMPANYING INFLAMMATORY DISEASES IN RUMINANTS” (DSM IP Assets B.V., priority 2018, published 2024)
